Article PMC3535377 (Amino Acids, 2011)

Legend:
[1] = target: T1, human TG6 (T021; Zedira) (Homo sapiens, UniProt O95932); assay: fluorescence isopeptidase; format: biochemical
T1 sequence (O95932 1-706): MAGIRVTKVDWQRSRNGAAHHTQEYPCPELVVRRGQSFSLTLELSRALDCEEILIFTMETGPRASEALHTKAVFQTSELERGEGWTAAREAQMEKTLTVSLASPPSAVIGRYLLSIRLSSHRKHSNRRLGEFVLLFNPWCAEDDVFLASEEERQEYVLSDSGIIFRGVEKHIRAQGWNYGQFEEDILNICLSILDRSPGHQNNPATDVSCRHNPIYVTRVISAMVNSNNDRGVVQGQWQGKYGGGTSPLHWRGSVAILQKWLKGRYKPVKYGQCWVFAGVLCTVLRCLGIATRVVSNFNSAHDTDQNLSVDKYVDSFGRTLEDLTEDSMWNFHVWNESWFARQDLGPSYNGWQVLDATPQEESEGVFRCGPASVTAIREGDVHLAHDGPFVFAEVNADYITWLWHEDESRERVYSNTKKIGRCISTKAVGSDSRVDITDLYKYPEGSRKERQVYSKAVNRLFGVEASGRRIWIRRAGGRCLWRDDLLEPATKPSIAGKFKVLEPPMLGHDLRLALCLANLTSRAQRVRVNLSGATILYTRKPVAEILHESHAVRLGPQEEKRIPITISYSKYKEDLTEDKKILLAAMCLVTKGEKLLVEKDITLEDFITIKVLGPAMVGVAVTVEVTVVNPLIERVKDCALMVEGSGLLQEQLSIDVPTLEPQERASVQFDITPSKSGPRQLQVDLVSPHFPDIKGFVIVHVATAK

[2] = target: T1, human TG6 (T021; Zedira); assay: fluorescence isopeptidase; format: biochemical; conditions: 37°C, Ca2+-activated; allosteric

Row | IC50 [1] [µM] | SMILES | half-maximal inhibition [2]
1 | ~1000 | Nc1ncnc2c1ncn2[C@@H]1O[C@H](COP(=O)(O)OP(=O)(O)OP(=O)(O)O)[C@@H](O)[C@H]1O [ATP] | 
2 |  | Nc1nc2c(ncn2[C@@H]2O[C@H](COP(=O)(O)OP(=O)(O)O)[C@@H](O)[C@H]2O)c(=O)[nH]1 [GDP] | Activity of TG6 is inhibited to a similar degree by GTP and GDP
3 |  | Nc1nc2c(ncn2[C@@H]2O[C@H](COP(=O)(O)O)[C@@H](O)[C@H]2O)c(=O)[nH]1 [GMP] | but the affinity for GMP is low
4 | 200 | Nc1nc2c(ncn2[C@@H]2O[C@H](COP(=O)(O)OP(=O)(O)OP(=O)(O)O)[C@@H](O)[C@H]2O)c(=O)[nH]1 [GTP] | 
5 |  | Nc1nc2c(ncn2[C@@H]2O[C@H](COP(=O)(O)OP(=O)(O)OP(O)(O)=S)[C@@H](O)[C@H]2O)c(=O)[nH]1 [GTPγS] | The non-hydrolyzable GTP analogue GTPγS is a more effective inhibitor than GTP
